Literature values in patent publication US20080302375A1 (priority 2003, published 2008).

Settings: upon the smoking of a cigarette

## CN1CCCC1c1cccnc1 (stereo not shown) [nicotine, 3-(1-methyl-2-pyrrolidinyl)-pyridine]
  time for nicotine to reach the brain after inhalation: ten
